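Dose response: 5 concentrations. Exposure: 48 h. Format: 96-well plates. Endpoint: linear interpolation; highest concentration if not reached. At the GI50, growth is halved.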 Calls of active or inactive are those of the source. Cut-off read from the data, not from the text of the source: active = GI50 up to about 1.1 µM and inactive = higher.
Key:
Assay in all cases: growth of human tumour cells (NCI), 48 h
[1] = system: OVCAR-8
[2] = system: NCI/ADR-RES
[3] = system: RXF 393
[4] = system: SW-620
[5] = system: SN12C
[6] = system: HOP-62
[7] = system: NCI-H226
[8] = system: SNB-19
[9] = system: OVCAR-4
[10] = system: IGROV-1
[11] = system: COLO 205
[12] = system: MDA-MB-231
[13] = system: HCT-116
[14] = system: U-251
[15] = system: SR
[16] = system: HOP-92
[17] = system: SF-268
[18] = system: HL-60
[19] = system: RPMI-8226
[20] = system: Hs-578T

Structure (SMILES) | GI50 [1] | GI50 [2] | GI50 [3] | GI50 [4] | GI50 [5] | GI50 [6] | GI50 [7] | GI50 [8] | GI50 [9] | GI50 [10] | GI50 [11] | GI50 [12] | GI50 [13] | GI50 [14] | GI50 [15] | GI50 [16] | GI50 [17] | GI50 [18] | GI50 [19] | GI50 [20]
CCC1(O)CC(CCN(Cc2ccccc2)C(=O)OCc2ccccc2)C(OCc2ccccc2)C1O (stereo not drawn) | 15.6 µM (inactive) | 10.8 µM (inactive) | 16.3 µM (inactive) | 36.1 µM (inactive) | 24.4 µM (inactive) | 14.5 µM (inactive) | 10.7 µM (inactive) | 15.6 µM (inactive) | 7.66 µM (inactive) | 20.4 µM (inactive) | 16.2 µM (inactive) | 27.2 µM (inactive) | 17.5 µM (inactive) | 27.9 µM (inactive) | 12.2 µM (inactive) |  |  |  |  | 
CC(C)=CC(=O)OC1C2C(C)C(=O)OC2C(O)C(C)C2C=CC(=O)C21C (stereo not drawn) | 1.79 µM (inactive) | 4.3 µM (inactive) | 1.28 µM (inactive) | 1.68 µM (inactive) | 3.69 µM (inactive) | 8.02 µM (inactive) | 5.22 µM (inactive) | 7.38 µM (inactive) | 3.13 µM (inactive) | 3.33 µM (inactive) | 1.87 µM (inactive) |  | 1.66 µM (inactive) | 4.06 µM (inactive) |  | 4.09 µM (inactive) | 1.57 µM (inactive) | 0.826 µM (active) | 1.48 µM (inactive) | 
CC(C)CCCCCCCCCCCCC(=O)NCC(=O)NC1C(C)OC(Nc2ncnc3c2ncn3C)C(O)C1O (stereo not drawn) | 4.27 µM (inactive) | > 100 µM (inactive) | 2.89 µM (inactive) | 5.37 µM (inactive) | 3.5 µM (inactive) | 2.21 µM (inactive) | 2.16 µM (inactive) | 2.88 µM (inactive) | 6.41 µM (inactive) | 2.94 µM (inactive) | 3.81 µM (inactive) |  | 1.54 µM (inactive) | 1.21 µM (inactive) |  | 2.41 µM (inactive) | 3.21 µM (inactive) | 0.485 µM (active) | 2.43 µM (inactive) | 
CSc1ccc(-c2cc(-c3nc4ccccc4[nH]3)nc3[nH]c(-c4nc5ccccc5[nH]4)cc(=O)c23)cc1 | 71 µM (inactive) | > 100 µM (inactive) | 52.5 µM (inactive) |  | 71.1 µM (inactive) | 84.5 µM (inactive) | 84.5 µM (inactive) | > 100 µM (inactive) | 82.4 µM (inactive) | > 100 µM (inactive) | 37.8 µM (inactive) |  | 39.4 µM (inactive) | 93.8 µM (inactive) | > 100 µM (inactive) | > 100 µM (inactive) | 49.2 µM (inactive) | > 100 µM (inactive) | 41.9 µM (inactive) | > 100 µM (inactive)
O=C(Nc1ccccc1)C(=O)C(C(=O)c1ccccc1F)C1OC(=O)c2ccccc21 (stereo not drawn) | 19.5 µM (inactive) |  | 35.8 µM (inactive) | 41.9 µM (inactive) | 37.1 µM (inactive) | 42.8 µM (inactive) | 25.1 µM (inactive) | 27.5 µM (inactive) | 31.6 µM (inactive) | 71.4 µM (inactive) | 22.4 µM (inactive) |  | 18.9 µM (inactive) | 22.9 µM (inactive) | 21.5 µM (inactive) | > 100 µM (inactive) | 21.1 µM (inactive) | 24.4 µM (inactive) | 35.1 µM (inactive) | 
Cc1cccc(NC(=O)/C=C/c2ccccc2)c1C | > 100 µM (inactive) |  |  | > 100 µM (inactive) | > 100 µM (inactive) | 85.9 µM (inactive) | > 100 µM (inactive) | > 100 µM (inactive) | > 100 µM (inactive) |  | > 100 µM (inactive) | > 100 µM (inactive) | > 100 µM (inactive) | > 100 µM (inactive) | > 100 µM (inactive) |  | > 100 µM (inactive) | > 100 µM (inactive) | > 100 µM (inactive) | 37.7 µM (inactive)
C1CSCC2(COC2)CS1 | > 100 µM (inactive) | > 100 µM (inactive) | > 100 µM (inactive) | > 100 µM (inactive) | > 100 µM (inactive) |  | > 100 µM (inactive) | > 100 µM (inactive) | > 100 µM (inactive) |  | > 100 µM (inactive) |  | > 100 µM (inactive) | > 100 µM (inactive) | > 100 µM (inactive) | > 100 µM (inactive) | > 100 µM (inactive) |  |  | > 100 µM (inactive)
C=C1C(O)CC[C@]2(C)C1C1OC(C)(C)O[C@]13CC(=O)C(C)=C([C@H]1OC(C)(C)OC12)C3(C)C (stereo partly drawn) | > 100 µM (inactive) | > 100 µM (inactive) | 27.4 µM (inactive) | > 100 µM (inactive) | > 100 µM (inactive) | > 100 µM (inactive) | > 100 µM (inactive) | > 100 µM (inactive) | 96.4 µM (inactive) | > 100 µM (inactive) | > 100 µM (inactive) | > 100 µM (inactive) | > 100 µM (inactive) | > 100 µM (inactive) | > 100 µM (inactive) |  | > 100 µM (inactive) | > 100 µM (inactive) | 96.8 µM (inactive) | 

From ChEMBL document CHEMBL1201862, “PubChem BioAssay data set” (2004)
